Several values for one entry are separate records, joined by “and”; a condition that tells them apart may be missing. Identical values can stand only once.

The assay has as its system BDF1 mice, Adenocarcinoma 755 s.c., tumor weight T/C. Description: NCI In Vivo Anticancer Drug Screen. Data for tumor model Adenocarcinoma 755 (subcutaneous) in B6D2F1 (BDF1) mice. As to conditions: endpoint: mean tumor weight, higher = larger tumour. The gist of the method: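 Transplantable tumor implanted; mice dosed with compound or vehicle; survival or tumor size recorded; ratio of treated to vehicle control reported.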

The mark [1] stands for this setting: dose: 25.0 mg/kg/injection, schedule: Q01DX011 (ip), vehicle: methylcellulose (MC).
Where [2] appears, read: dose: 75.0 mg/kg/injection, schedule: Q01DX011 (ip), vehicle: methylcellulose (MC).

The term T/C denotes the result in the treated group divided by that in the control group, in per cent. Take `CCCCn1cnc2c(SC)nc(N)nc21`: the T/C runs as follows: (dose: 3.8 mg/kg/injection, schedule: Q01DX011 (ip), vehicle: carboxymethylcellulose (CMC)) 95 % of control; (dose: 7.5 mg/kg/injection, schedule: Q01DX011 (ip), vehicle: carboxymethylcellulose (CMC)) 49 % of control; (dose: 9.0 mg/kg/injection, schedule: Q01DX011 (ip), vehicle: carboxymethylcellulose (CMC)) 79 % of control; (dose: 13.0 mg/kg/injection, schedule: Q01DX011 (ip), vehicle: carboxymethylcellulose (CMC)) 69 % of control; (dose: 15.0 mg/kg/injection, schedule: Q01DX011 (ip), vehicle: carboxymethylcellulose (CMC)) 30 % of control; (dose: 20.0 mg/kg/injection, schedule: Q01DX011 (ip), vehicle: carboxymethylcellulose (CMC)) 44 % of control. Also, the T/C reads like this: (dose: 60.0 mg/kg/injection, schedule: Q01DX011 (ip), vehicle: carboxymethylcellulose (CMC)) 3 % of control and 4 % of control; (dose: 115.0 mg/kg/injection, schedule: Q01DX011 (ip), vehicle: carboxymethylcellulose (CMC)) 2 % of control and 3 % of control.
Consider `CS(=O)(=O)OCCC(=O)NCCCNC(=O)CCOS(C)(=O)=O`, for which the T/C by setting is: (dose: 28.0 mg/kg/injection, schedule: Q01DX011 (ip), vehicle: methylcellulose (MC)) 85 % of control; (dose: 52.0 mg/kg/injection, schedule: Q01DX011 (ip), vehicle: methylcellulose (MC)) 49 % of control.
With `Nc1nc(=S)cc(Nc2cccc(Cl)c2)[nH]1`, the T/C is 91 % of control (dose: 15.0 mg/kg/injection, schedule: Q01DX011 (ip), vehicle: methylcellulose (MC)); 87 % of control (dose: 62.0 mg/kg/injection, schedule: Q01DX011 (ip), vehicle: methylcellulose (MC)); 51 % of control (dose: 125.0 mg/kg/injection, schedule: Q01DX011 (ip), vehicle: methylcellulose (MC)).
Turning to `O=C(O)CCC(=O)Nc1nccs1`, the T/C was 71 % of control (dose: 150.0 mg/kg/injection, schedule: Q01DX011 (ip), vehicle: carboxymethylcellulose (CMC)); 83 % of control (dose: 300.0 mg/kg/injection, schedule: Q01DX011 (ip), vehicle: carboxymethylcellulose (CMC)); 63 % of control (dose: 600.0 mg/kg/injection, schedule: Q01DX011 (ip), vehicle: carboxymethylcellulose (CMC)).
In the case of `CC(=O)Nc1c(Cl)c(Cl)c2c(c1Cl)Cc1cc(Cl)ccc1-2`, the T/C (dose: 27.0 mg/kg/injection, schedule: Q01DX011 (ip), vehicle: acetone) was 87 % of control; the T/C (dose: 55.0 mg/kg/injection, schedule: Q01DX011 (ip), vehicle: acetone) was 31 % of control; the T/C (dose: 110.0 mg/kg/injection, schedule: Q01DX011 (ip), vehicle: other) was 46 % of control; the T/C (dose: 110.0 mg/kg/injection, schedule: Q01DX011 (ip), vehicle: saline) was 31 % of control; the T/C (dose: 225.0 mg/kg/injection, schedule: Q01DX011 (ip), vehicle: other) was 32 % of control; the T/C (dose: 225.0 mg/kg/injection, schedule: Q01DX011 (ip), vehicle: saline) is 8 % of control. For the same compound, the T/C (dose: 450.0 mg/kg/injection, schedule: Q01DX011 (ip), vehicle: other) is 19 % of control.
On to `CC1CCCN(/N=N/c2nc3c([nH]2)c(=O)n(C)c(=O)n3C)C1` (configuration not stated), for which the T/C is 66 % of control under setting [1] and 61 % of control under setting [2].
Consider `c1nc(SC2CCCC2)c2[nH]cnc2n1`, for which the T/C runs as follows: (dose: 0.62 mg/kg/injection, schedule: Q01DX011 (ip), vehicle: carboxymethylcellulose (CMC)) 76 % of control; (dose: 0.62 mg/kg/injection, schedule: Q01DX011 (oral), vehicle: carboxymethylcellulose (CMC)) 93 % of control; (dose: 1.25 mg/kg/injection, schedule: Q01DX011 (ip), vehicle: carboxymethylcellulose (CMC)) 66 % of control; (dose: 2.5 mg/kg/injection, schedule: Q01DX011 (ip), vehicle: carboxymethylcellulose (CMC)) 45 % of control; (dose: 2.5 mg/kg/injection, schedule: Q01DX011 (oral), vehicle: carboxymethylcellulose (CMC)) 62 % of control; (dose: 5.0 mg/kg/injection, schedule: Q01DX011 (oral), vehicle: carboxymethylcellulose (CMC)) 6 % of control. Besides, the T/C is 59 % of control (dose: 5.2 mg/kg/injection, schedule: Q01DX011 (ip), vehicle: carboxymethylcellulose (CMC)); 6 % of control (dose: 10.0 mg/kg/injection, schedule: Q01DX011 (ip), vehicle: carboxymethylcellulose (CMC)); 3 % of control (dose: 10.0 mg/kg/injection, schedule: Q01DX011 (oral), vehicle: carboxymethylcellulose (CMC)); 20 % of control (dose: 10.5 mg/kg/injection, schedule: Q01DX011 (ip), vehicle: carboxymethylcellulose (CMC)); 6 % of control and 17 % of control (dose: 21.0 mg/kg/injection, schedule: Q01DX011 (ip), vehicle: carboxymethylcellulose (CMC)); 7 % of control (dose: 21.0 mg/kg/injection, schedule: Q01DX011 (oral), vehicle: carboxymethylcellulose (CMC)). Moreover, the T/C (dose: 42.0 mg/kg/injection, schedule: Q01DX011 (ip), vehicle: carboxymethylcellulose (CMC)) was 4 % of control; the T/C (dose: 42.5 mg/kg/injection, schedule: Q01DX011 (ip), vehicle: carboxymethylcellulose (CMC)) is 1 % of control; the T/C (dose: 84.0 mg/kg/injection, schedule: Q01DX011 (oral), vehicle: carboxymethylcellulose (CMC)) was 5 % of control; the T/C (dose: 85.0 mg/kg/injection, schedule: Q01DX011 (ip), vehicle: carboxymethylcellulose (CMC)) is 1 % of control and 2 % of control; the T/C (dose: 85.0 mg/kg/injection, schedule: Q01DX011 (oral), vehicle: carboxymethylcellulose (CMC)) was 2 % of control; the T/C (dose: 87.0 mg/kg/injection, schedule: Q01DX001 (ip), vehicle: carboxymethylcellulose (CMC)) was 43 % of control. The T/C runs as follows: (dose: 174.0 mg/kg/injection, schedule: Q01DX001 (ip), vehicle: carboxymethylcellulose (CMC)) 44 % of control; (dose: 347.0 mg/kg/injection, schedule: Q01DX001 (ip), vehicle: carboxymethylcellulose (CMC)) 25 % of control; (dose: 694.0 mg/kg/injection, schedule: Q01DX001 (ip), vehicle: carboxymethylcellulose (CMC)) 24 % of control.
Turning to `CCC(=O)NC`, the T/C (dose: 45.0 mg/kg/injection, schedule: Q01DX011 (ip), vehicle: saline) is 107 % of control; the T/C (dose: 175.0 mg/kg/injection, schedule: Q01DX011 (ip), vehicle: saline) was 81 % of control; the T/C (dose: 350.0 mg/kg/injection, schedule: Q01DX011 (ip), vehicle: saline) was 118 % of control; the T/C (dose: 625.0 mg/kg/injection, schedule: Q#A X022 (ip), vehicle: other) is 6 % of control; the T/C (dose: 1000.0 mg/kg/injection, schedule: Q01DX011 (ip), vehicle: other) was 11 % of control; the T/C (dose: 1500.0 mg/kg/injection, schedule: Q01DX011 (ip), vehicle: other) is 6 % of control. For the same compound, the T/C by setting is: (dose: 1560.0 mg/kg/injection, schedule: Q01DX011 (ip), vehicle: other) 49 % of control; (dose: 1750.0 mg/kg/injection, schedule: Q01DX011 (ip), vehicle: other) 36 % of control.
Consider `NS(=O)(=O)c1nc2nc[nH]c2c(=O)[nH]1`, for which the T/C by setting is: (dose: 25.0 mg/kg/injection, schedule: Q01DX011 (ip), vehicle: carboxymethylcellulose (CMC)) 66 % of control; (dose: 75.0 mg/kg/injection, schedule: Q01DX011 (ip), vehicle: carboxymethylcellulose (CMC)) 78 % of control; (dose: 225.0 mg/kg/injection, schedule: Q01DX011 (ip), vehicle: carboxymethylcellulose (CMC)) 61 % of control.
For the compound `Cn1c(=O)c2c(nc(COCc3nc4c(c(=O)n(C)c(=O)n4C)n3C)n2C)n(C)c1=O`, the T/C reads like this: under setting [1], 60 % of control; under setting [2], 82 % of control; (dose: 225.0 mg/kg/injection, schedule: Q01DX011 (ip), vehicle: methylcellulose (MC)) 33 % of control.
For the compound `O=C(CCBr)NCCCCNC(=O)CCBr`, the T/C (dose: 56.0 mg/kg/injection, schedule: Q01DX011 (ip), vehicle: methylcellulose (MC)) is 83 % of control and the T/C (dose: 113.0 mg/kg/injection, schedule: Q01DX011 (ip), vehicle: methylcellulose (MC)) is 78 % of control.

The values are drawn from PubChem BioAssay AID180 (DTP/NCI, 2004).
